Test results reported in patent US20210220331A1, “INHIBITORS OF IRES-MEDIATED PROTEIN SYNTHESIS” (The Regents of the University of California, priority 2016, published 2021).
Like-named read-outs stand apart in the source and are kept apart here.

How the values were obtained:
[1] = system: normal mature human neurons; experiment: In vitro cytotoxicity in human neurons (trypan blue exclusion); assay type: cell-based; set-up: dose or concentration left out as unconfirmed
Description: Within the series B and C analogs, IRES-J008, with a 4-methoxyphenyl substituent in place of the 2,4-dimethoxybenzyl unit, and to a lesser degree, IRES-J009, with an N1-methyluracil unit in place of the dichloromaleimide unit, inhibited cyclin D1 and c-MYC PP242-induced IRES activity. […] The in vitro cytotoxicities of these three analogs relative to C11 in human neurons were also determined. […] The reduced toxicity of the IRES-J007 versus C11 might possible be due to the lack of the quite reactive dichloromaleimide unit present in C11 which is absent in IRES-J007, or may be due to other factors.

actin mRNA = experiment: Polysome analysis of xenografted LN229 tumors, actin mRNA; conditions: monotherapy
Description: (§3) Cells were lysed in buffer containing 100 μg/ml cycloheximide at 4° C. Following removal of mitochondria and nuclei, supernatants were layered onto 15-50% sucrose gradients and centrifuged at 38,000 rpm for 2 h at 4° C. in an SW40 rotor (Beckman Instruments). Gradients were fractionated into 11 1-ml fractions using a density gradient fractionator (Brandel Instruments). The profiles of the gradients were monitored at 260 nm, and RNAs from individual fractions were pooled into a nonribosomal/monosomal pool and a polysomal pool. These RNAs (100 ng) were used in real time quantitative RT-PCR analysis for the indicated transcripts.
(§4) Tumor extracts were subjected to sucrose density gradient centrifugation, fractionated and pooled into nonribosomal, monosomal fraction (N, white bars) and a polysomal fraction (P, black bars). Purified RNAs were used in real-time qRT-PCR analysis to determine the distributions of cyclin D1, c-MYC and actin mRNAs across the gradients. […] Means and +S.D. values are shown for quadruplicate RT-PCR measurements. *, P<0.05.
(§5) Polysomes were separated via sucrose density gradient sedimentation and fractionated into heavy polysomal and nonribosomal/monosomal fractions.

Pharmacokinetics in mice = assay type: in vivo
Description: The pharmacokinetic properties of IRES-J007 in mice were determined. […] IRES-J007 was ˜50% bioavailable following oral delivery with a serum half-life of approximately 30 hours.

cyclin D1 mRNA = experiment: Polysome analysis of xenografted LN229 tumors, cyclin D1 mRNA
Description: as §3, §4, §5

c-MYC mRNA = experiment: Polysome analysis of xenografted LN229 tumors, c-MYC mRNA
Description: as §3, §4, §5

[2] = system: IRES from encephalomyocarditis virus; experiment: Dicistronic IRES mRNA reporter assay, ECMV IRES; assay type: cell-based; conditions: LN229 cells
Description: (§1) Western blot and quantitative RT-PCR analyses were performed as previously described (19). For Western blotting, cells or tissues were lysed in RIPA (lysis) buffer containing protease inhibitor cocktail and phosSTOP phosphatase inhibitor cocktail (Roche) and extracts resolved by SDSPAGE. Proteins were transferred to PVDF membranes and incubated with the indicated antibodies. For IRES reporter assays, the indicated mRNA reporters were cotransfected into cells with pSVβ-galactosidase to normalize for transfection efficiency as described previously (16). Cells were harvested 18 h following transfection and Renilla, firefly and β-galactosidase activities determined using the Dual-Glo Luciferase and β-galactosidase assay systems (Promega).
(B) Schematic diagrams of the dicistronic constructs used in this study. […] Input and bound fractions were analyzed by immunoblotting using hnRNP A1 antibodies. […] Bound CCND1 or c-MYC RNAs were detected via RT-PCR. […]
Several dicistronic IRES mRNA reporter constructs were utilized, shown in FIG. 1B, in which the indicated IRES sequences were inserted within the intercistronic region. LN229 cells transiently transfected with these constructs were assayed for Renilla and firefly luciferase activities, which are readouts of cap-dependent and IRES-mediated translation initiation, respectively (16).

[3] = system: LN229, LN18, LN428 and SF763 GBM lines; experiment: Growth inhibition of GBM cell lines (XTT); assay type: cell-based
Description: (§2) Results are expressed as relative fold change in firefly (FF) luciferase activity and the mean and +S.D. are shown for three independent experiments. (B) Growth inhibition of GBM cell lines following 48 h culture in C11. Data represent mean±S.D. of three independent experiments. […] Control cell were treated with DMSO vehicle. Data are means±S.D., n=3. […] Percent apoptotic cells as determined via Annexin V staining are also shown below each graph. One of three experiments with similar results is shown.

Delta Max splicing = experiment: Max exon 5 alternative splicing analysis (RT-PCR); assay type: cell-based; conditions: U87 cells stably expressing EGFRvIII
Description: Max exon 5 alternative splicing analysis was performed as described (22). Alternative splicing was assayed using quantitative RT-PCR using primers designed to constitutive exons flanking alternative exons. Primers were: Max (85F) 5′-[…]-3′; MAX(85R) 5′-[…]-3′. Reverse primers were 32P end-labeled and PCR reactions were amplified for 22 cycles and subsequently resolved by denaturing PAGE and imaged.
(B) Schematic diagrams of the dicistronic constructs used in this study. Constructs used are pRF, pRCD1F, which contains the human cyclin D1 IRES, pRmycF, containing the human c-myc IRES, pRp27F, containing the human p27Kip1 IRES and pRECMVF, containing the IRES from encephalomyocarditis virus. (C) Relative Renilla and firefly luciferase activities obtained from LN229 GBM cells transfected with the indicated constructs in the absence or presence of the inhibitor C11. The mean and +SD are shown for three independent experiments. […] (D) RNA-pull down assays utilizing biotinylated cyclin D1 or c-MYC IRES RNAs. Cytoplasmic extracts of LN229 cells treated with C11 (50 nM) as indicated were incubated with biotinylated cyclin D1 or c-MYC IRES RNAs and precipitated with streptavidin-Sepharose beads. Input and bound fractions were analyzed by immunoblotting using hnRNP A1 antibodies. […] Bound CCND1 or c-MYC RNAs were detected via RT-PCR. […]

[4] = system: cyclin D1 and c-MYC protein; experiment: Western blot of cyclin D1 and c-MYC protein levels in GBM cell lines; assay type: cell-based; conditions: LN229 and SF763 cells, 24 h
Description: as §1
(B) Schematic diagrams of the dicistronic constructs used in this study. Constructs used are pRF, pRCD1F, which contains the human cyclin D1 IRES, pRmycF, containing the human c-myc IRES, pRp27F, containing the human p27Kip1 IRES and pRECMVF, containing the IRES from encephalomyocarditis virus. (C) Relative Renilla and firefly luciferase activities obtained from LN229 GBM cells transfected with the indicated constructs in the absence or presence of the inhibitor C11. […] Input and bound fractions were analyzed by immunoblotting using hnRNP A1 antibodies. […] Bound CCND1 or c-MYC RNAs were detected via RT-PCR. […]

[5] = system: LN229, LN18, LN428 and SF763 GBM lines; experiment: Cell-cycle phase distribution and Annexin V apoptosis in four GBM lines; assay type: cell-based
Description: as §2, with “(B) Growth inhibition of GBM cell lines following 48 h culture in C11.” left out, “graph.” for “graph. One of three experiments with similar results is shown.”

[6] = system: cyclin D1, c-MYC and actin mRNAs; experiment: Polysome analysis in LN229 cells; assay type: cell-based

With COc1ccc(CN2C(=O)c3ccccc3C2=O)c(OC)c1 [IRES-J007, 2-((2,4-Dimethoxyphenyl)methyl)isoindoline-1,3-dione] the “cytotoxic effects on normal neurons” value [1] was “no significant cytotoxic effects”, the “actin mRNA polysomal distribution / translational efficiency” value (actin mRNA) was “unaffected” and the AUC (Pharmacokinetics in mice; mouse, plasma, 20 mg/kg, PO) was 759 µg·h/mL. For the same compound, the Cmax (Pharmacokinetics in mice; mouse, plasma, 20 mg/kg, PO) was 17.2 µg/mL, the Tmax (Pharmacokinetics in mice; mouse, plasma, 20 mg/kg, PO) was 7.2 h and the half-life (Pharmacokinetics in mice; mouse, plasma, 20 mg/kg, PO, read-out: Half-life (T1/2 K10) (converted)) was 27.4 h. It also gave an AUC (Pharmacokinetics in mice; mouse, plasma, IV) of 1290 µg·h/mL, a Cmax (Pharmacokinetics in mice; mouse, plasma, IV) of 284 µg/mL and a Tmax (Pharmacokinetics in mice; mouse, plasma, IV) of 0.05 h. It also gave a clearance (Pharmacokinetics in mice; mouse, plasma, IV) of 152 mL/min/kg, a half-life (Pharmacokinetics in mice; mouse, plasma, IV, read-out: Half-life (T1/2 b) (converted)) of 13.6 h and a bioavailability (Pharmacokinetics in mice; mouse, plasma, iv, read-out: Relative Bioavailability) of 100%. For the same compound, the bioavailability (Pharmacokinetics in mice; mouse, plasma, po, 20 mg/kg, PO, calculated based on AUC, read-out: Relative Bioavailability) was 40.1%, the bioavailability (Pharmacokinetics in mice; mouse, plasma, po, 20 mg/kg, oral gavage 20 mg/kg, read-out: bioavailability following oral delivery) was about 50% and the half-life (Pharmacokinetics in mice; mouse, serum, oral delivery 20 mg/kg, read-out: serum half-life (converted)) was about 30 h. For the same compound, the trough levels (Pharmacokinetics in mice; single 20 mg/kg dose) was “exceeded concentrations expected to block hnRNP A1 IRES activity”, the “cyclin D1 mRNA translational efficiency” value (cyclin D1 mRNA; IRES-J007 monotherapy) was “significant reduction” and the “CCND1 mRNA polysomal” value (cyclin D1 mRNA; PP242 and IRES-J007 cotherapy) was 5%. The “c-MYC mRNA translational efficiency” value (c-MYC mRNA; IRES-J007 monotherapy) was “significant reduction” and the “c-MYC mRNA polysomal” value (c-MYC mRNA; PP242 and IRES-J007 cotherapy) was 3%.
With COc1ccc(CN2C(=O)C(Cl)=C(Cl)C2=O)c(OC)c1 [Compound C11, reference compound] the “IRES-mediated initiation from ECMV IRES” value [2] was “did not affect”, the “CI (combination index) at ED50 ratio of 1:100” value ([3]; C11 at 10 and 100 nM with PP242, 48 h, LN229, LN18, LN428 and SF763) was 0.5 and the “inhibition of cell growth” value ([3]; inhibitor alone, concentrations up to 10 μM, 48 h, several GBM lines) was “No significant inhibition of cell growth”. For the same compound, the “Delta Max splicing” value (Delta Max splicing) was “did not alter”, the “cyclin D1 and c-MYC protein levels” value [4] was “markedly reduced” and the “percentage of cells undergoing apoptosis” value ([5]; combined with PP242, four GBM lines) was “further potentiated the percentage of cells undergoing apoptosis”. The G1 arrest ([5]; cotreatment with PP242, four GBM lines) was “markedly stimulated G1 arrest”, the “actin mRNA distribution” value ([6]; 50 nM) was “unaffected” and the “polysome distribution of cyclin D1 and c-MYC mRNA” value ([6]; 50 nM) was “significant shift in both cyclin D1 and c-MYC mRNA to monosomal/nonribosomal fractions”. The “cyclin D1 or c-MYC steady-state mRNA levels” value ([6]; total monosomal/nonribosomal plus polysomal mRNA) was “did not appear to alter”.
